Experimental data: PubChem BioAssay AID248 (DTP/NCI, 2004)
“And” between values parts separate entries of the source, which are not always exact repeats. Equal entries are not always repeated. Inconclusive results and toxic doses are left out. Cut-off read from the data, not from the text of the source: active = T/C of 150% or more; inactive = T/C below 125%.

System: L1210 leukemia ip in BDF1 mice, survival T/C
Assay: NCI In Vivo Anticancer Drug Screen. Data for tumor model L1210 Leukemia (intraperitoneal) in B6D2F1 (BDF1) mice
Conditions: endpoint: mean survival time, higher = longer survival
In short: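 Transplanted-tumor mice were given test agent; controls received vehicle only. Survival readings from the two groups were divided (treated over control).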

[1] = dose: 100.0 mg/kg/injection, schedule: Q01DX009 (ip), vehicle: Klucel (hydroxypropylcellulose) (HPC)
[2] = dose: 100.0 mg/kg/injection, schedule: Q04DX003 (ip), vehicle: Klucel (hydroxypropylcellulose) (HPC)
[3] = dose: 200.0 mg/kg/injection, schedule: Q01DX009 (ip), vehicle: Klucel (hydroxypropylcellulose) (HPC)
[4] = dose: 200.0 mg/kg/injection, schedule: Q04DX003 (ip), vehicle: Klucel (hydroxypropylcellulose) (HPC)
[5] = dose: 400.0 mg/kg/injection, schedule: Q01DX009 (ip), vehicle: Klucel (hydroxypropylcellulose) (HPC)
[6] = dose: 400.0 mg/kg/injection, schedule: Q04DX003 (ip), vehicle: Klucel (hydroxypropylcellulose) (HPC)
[7] = dose: 100.0 mg/kg/injection, schedule: Q01DX001 (ip), vehicle: saline
[8] = dose: 200.0 mg/kg/injection, schedule: Q01DX001 (ip), vehicle: saline
[9] = dose: 400.0 mg/kg/injection, schedule: Q04DX002 (ip), vehicle: saline with Tween-80
[10] = dose: 100.0 mg/kg/injection, schedule: Q04DX003 (ip), vehicle: saline
[11] = dose: 200.0 mg/kg/injection, schedule: Q04DX003 (ip), vehicle: saline
[12] = dose: 400.0 mg/kg/injection, schedule: Q04DX003 (ip), vehicle: saline
[13] = dose: 100.0 mg/kg/injection, schedule: Q01DX009 (ip), vehicle: saline with Tween-80
[14] = dose: 200.0 mg/kg/injection, schedule: Q01DX009 (ip), vehicle: saline with Tween-80
[15] = dose: 400.0 mg/kg/injection, schedule: Q01DX009 (ip), vehicle: saline with Tween-80
[16] = dose: 100.0 mg/kg/injection, schedule: Q04DX002 (ip), vehicle: saline with Tween-80
[17] = dose: 200.0 mg/kg/injection, schedule: Q04DX002 (ip), vehicle: saline with Tween-80
[18] = dose: 75.0 mg/kg/injection, schedule: Q01DX001 (ip), vehicle: saline
[19] = dose: 150.0 mg/kg/injection, schedule: Q01DX001 (ip), vehicle: saline
[20] = dose: 50.0 mg/kg/injection, schedule: Q01DX009 (ip), vehicle: saline
[21] = dose: 100.0 mg/kg/injection, schedule: Q01DX009 (ip), vehicle: saline
[22] = dose: 200.0 mg/kg/injection, schedule: Q01DX009 (ip), vehicle: saline

Measured: T/C

Cc1ccc(C(CCC#N)OC(C)C)cc1 (stereo unspecified)
inactive: [1] 95 % of control | [2] 96 % of control | [3] 92 % of control | [4] 101 % of control | [5] 97 % of control | [6] 92 % of control

NCCN(CCN)CCN
inactive: dose: 50.0 mg/kg/injection, schedule: Q01DX001 (ip), vehicle: saline 108 % of control | [7] 96 % of control | [8] 96 % of control | dose: 400.0 mg/kg/injection, schedule: Q01DX001 (ip), vehicle: saline 124 % of control

c1cc[c]([GeH]([c]2ccccc2)[c]2ccccc2)cc1
inactive: dose: 64.0 mg/kg/injection, schedule: Q04DX002 (ip), vehicle: saline with Tween-80 91 % of control | dose: 160.0 mg/kg/injection, schedule: Q04DX002 (ip), vehicle: saline with Tween-80 94 % of control | [9] 97 % of control

CN(C)CCN(C)Cc1cc(=O)[nH]c(=O)[nH]1
inactive: [10] 96 % of control | [11] 100 % of control | [12] 100 % of control

CC(C)(C)SC(C)(C)C
inactive: [13] 96 % of control | [14] 96 % of control | [15] 96 % of control

CCCCSCCO
inactive: [13] 89 % of control | [16] 96 % of control | [14] 96 % of control | [17] 93 % of control | [15] 107 % of control | [9] 86 % of control

CCN(C(C)=O)c1ccccc1C#N
inactive: [18] 107 % of control | [19] 107 % of control

COc1ccc(OC)c2ncccc12
inactive: [7] 104 % of control

Cc1ccc2cc3c4ccccc4ccc3[n+](C)c2c1
inactive: dose: 75.0 mg/kg/injection, schedule: Q01DX001 (ip), vehicle: carboxymethylcellulose (CMC) 100 % of control | dose: 150.0 mg/kg/injection, schedule: Q01DX001 (ip), vehicle: carboxymethylcellulose (CMC) 100 % of control | dose: 300.0 mg/kg/injection, schedule: Q01DX001 (ip), vehicle: carboxymethylcellulose (CMC) 102 % of control

CC(=O)N(c1ccc(NC(=O)c2ccc(N3C(=O)c4ccccc4C3=O)cc2[N+](=O)[O-])cc1)c1cc[n+](C)cc1
inactive: dose: 100.0 mg/kg/injection, schedule: Q01DX001 (ip), vehicle: saline with Tween-80 93 % of control and 90 % of control | [16] 101 % of control and 115 % of control | dose: 200.0 mg/kg/injection, schedule: Q01DX001 (ip), vehicle: saline with Tween-80 93 % of control and 108 % of control | [17] 101 % of control and 113 % of control | dose: 400.0 mg/kg/injection, schedule: Q01DX001 (ip), vehicle: saline with Tween-80 107 % of control and 90 % of control | [9] 96 % of control and 105 % of control

CC(=O)Nc1c(Cl)c(Cl)c2c(c1Cl)Cc1cc(Cl)ccc1-2
inactive: dose: 100.0 mg/kg/injection, schedule: Q01DX009 (ip), vehicle: acetone 90 % of control | [10] 93 % of control | dose: 200.0 mg/kg/injection, schedule: Q01DX009 (ip), vehicle: acetone 93 % of control | [11] 91 % of control | dose: 400.0 mg/kg/injection, schedule: Q01DX009 (ip), vehicle: acetone 95 % of control | [12] 91 % of control

C=COC(=O)c1ccccc1
inactive: [13] 98 % of control | [16] 93 % of control | [14] 98 % of control | [17] 93 % of control | [15] 95 % of control | [9] 93 % of control

Cc1[nH]nc2c(=O)[nH]c(=O)[nH]c12
inactive: [18] 100 % of control | [19] 103 % of control | dose: 300.0 mg/kg/injection, schedule: Q01DX001 (ip), vehicle: saline 107 % of control

CC(=O)OC(C)C(C)C(=O)OCC12C3CC4(C)C(=CCC5C6(C)CCC(OC7OC(C(=O)O)C(OC8OC(CO)C(O)C(O)C8O)C(O)C7OC7OCC(O)C(O)C7O)C(C)(CO)C6CCC54C)C1CC(C)(C)C(O3)C2O (stereo unspecified)
inactive: dose: 5.0 mg/kg/injection, schedule: Q01DX001 (sc), vehicle: steriod suspending solution 105 % of control | dose: 50.0 mg/kg/injection, schedule: Q01DX001 (sc), vehicle: steriod suspending solution 112 % of control

Cc1cc(OCC#CCN(C)c2ccccc2)ccc1Cl
inactive: dose: 100.0 mg/kg/injection, schedule: Q04DX002 (ip), vehicle: Klucel (hydroxypropylcellulose) (HPC) 89 % of control | dose: 200.0 mg/kg/injection, schedule: Q04DX002 (ip), vehicle: Klucel (hydroxypropylcellulose) (HPC) 99 % of control | dose: 400.0 mg/kg/injection, schedule: Q04DX002 (ip), vehicle: Klucel (hydroxypropylcellulose) (HPC) 96 % of control

O=C(O)c1nc2nc(Cl)c(Cl)nc2[nH]1
inactive: [20] 98 % of control | [21] 101 % of control and 90 % of control | [10] 100 % of control | [22] 93 % of control and 96 % of control | [11] 103 % of control | dose: 300.0 mg/kg/injection, schedule: Q01DX009 (ip), vehicle: saline 102 % of control | dose: 400.0 mg/kg/injection, schedule: Q01DX009 (ip), vehicle: saline 91 % of control

CCP(CC)c1cccc(OC(=O)NC)c1
inactive: dose: 5.0 mg/kg/injection, schedule: Q01DX001 (ip), vehicle: saline 110 % of control | dose: 10.0 mg/kg/injection, schedule: Q01DX001 (ip), vehicle: saline 104 % of control | dose: 20.0 mg/kg/injection, schedule: Q01DX001 (ip), vehicle: saline 107 % of control

CCOc1ccccc1CC(=O)O
inactive: [13] 88 % of control | dose: 100.0 mg/kg/injection, schedule: Q04DX003 (ip), vehicle: saline with Tween-80 92 % of control | [14] 98 % of control | dose: 200.0 mg/kg/injection, schedule: Q04DX003 (ip), vehicle: saline with Tween-80 87 % of control | [15] 101 % of control | dose: 400.0 mg/kg/injection, schedule: Q04DX003 (ip), vehicle: saline with Tween-80 92 % of control

CN(C)C(=O)c1ccc[n+](Cc2ccc(Cl)c(Cl)c2)c1
inactive: [10] 88 % of control

Cc1cc(OCCBr)ccc1[N+](=O)[O-]
inactive: dose: 100.0 mg/kg/injection, schedule: Q01DX001 (ip), vehicle: Klucel (hydroxypropylcellulose) (HPC) 92 % of control | dose: 200.0 mg/kg/injection, schedule: Q01DX001 (ip), vehicle: Klucel (hydroxypropylcellulose) (HPC) 95 % of control | dose: 400.0 mg/kg/injection, schedule: Q01DX001 (ip), vehicle: Klucel (hydroxypropylcellulose) (HPC) 95 % of control

CCCCNC(=O)NC(=O)C(C)(C)Oc1ccc(Cl)cc1
inactive: [20] 103 % of control | [21] 103 % of control | [22] 95 % of control

COc1ccc(OC)c(NC(=O)N(Cc2ccccc2)Cc2ccccc2)c1
inactive: [2] 93 % of control | [4] 87 % of control | [6] 88 % of control

COC(=O)/C=C(\C)Nc1ccc(Cc2ccc(N/C(C)=C/C(=O)OC)cc2)cc1
inactive: [7] 95 % of control | [8] 86 % of control

Cc1ccc(NC(=O)Nc2ccc(S(N)(=O)=O)cc2)c([N+](=O)[O-])c1
inactive: [2] 88 % of control | [4] 89 % of control | [6] 88 % of control

O=C1C=C(N2CCCC2)CCC1
inactive: [18] 107 % of control | [19] 109 % of control

COC(OC)c1[nH]c(=O)[nH]c(=O)c1F.[Hg]
inactive: dose: 3.0 mg/kg/injection, schedule: Q01DX009 (ip), vehicle: saline 97 % of control | dose: 6.0 mg/kg/injection, schedule: Q01DX009 (ip), vehicle: saline 97 % of control | dose: 12.0 mg/kg/injection, schedule: Q04DX003 (ip), vehicle: saline 98 % of control

CN(C)CCCN=C=NC1CCCCC1
inactive: [2] 98 % of control | [4] 95 % of control

O=C(Nc1ccccc1F)OC/C=C/c1ccccc1
inactive: [1] 104 % of control | [3] 97 % of control | [5] 95 % of control

CN(C)C1CCC(C=C(C2CCC(CC(=O)O)CC2)C2CCC(CC(=O)O)CC2)CC1 (stereo unspecified)
inactive: [16] 111 % of control | [17] 101 % of control | [9] 105 % of control
